Measured values as given in US4451575A, “Activators for Ziegler type polymerization catalysts using bis(trichloromethyl) sulfone” (Uniroyal, Inc., priority 1982, dated 1984).

Assays:
rabbit skin = experiment: Primary Skin Irritation
eye = experiment: Eye irritation
Acute Oral LD50 = settings: rat, in vivo

## CCCCOC(=O)C1(Cl)OC(Cl)C(Cl)C1Cl (stereo not drawn) [UKU, Butyl 2,3,4,5-Tetrachloro-2,3,4,5, Tetrahydro-2-Furoate]
Ames Test (mutagenicity)
  Ames Test, mutagenicity: negative

## O=C(OCC1(Cl)OC(Cl)C(Cl)C1Cl)C1(Cl)OC(Cl)C(Cl)C1Cl (stereo not drawn) [ZXU, Tetrachlorotetrahydrofurfuryl Tetrachlorotetrahydrofuroate]
Ames Test (mutagenicity)
  Ames Test, mutagenicity: negative
Rabbit skin
  Primary Skin Irritation: Moderate irritant
eye; left in without washout
  Eye irritation: severe irritant
eye; material washed out 4 seconds after introduction
  Eye irritation: Mild irritant
Acute Oral LD50
  LD50: 1100 ± 150 mg/kg
